Results: patent publication US10123533B2, “Nitrogen containing surfactants for agricultural use” (AKZO NOBEL CHEMICALS INTERNATIONAL B.V., priority 2009, dated 2018)

Experiments:
[1] = system: wheat (TRIAV, a narrow leaf grass); test: Green house % Control of glyphosate samples with various surfactants (Example 1), wheat; assay type: in vivo; details: WT
Text: (§1) Four glyphosate samples with various surfactants were sprayed on morning glory (IPOHE, a broad leaf week) and wheat (TRIAV, a narrow leaf grass) in a green house setting. The surfactants are designated in Table 1.
(§2) The glyphosate rates of the spray solutions were 186, 372, and 743 g ae/ha (gram acid equivalent per hectare). […] Higher ratio means lower surfactant concentration. A ratio of 6.7 means the sample, at the same glyphosate concentration, has 2.2 times less surfactant than a sample with a ratio of 3.
(§3) Sample D served as a negative control, since it contained only glyphosate without added surfactant. Sample C served as a positive control since it is well known that tallowamine-15EO is an excellent surfactant to enhance glyphosate efficacy.
(§4) % Control ratings were conducted by an experienced person at 7, 14, 21, and 29 days after treatment (DAT). Digital pictures were also taken at the time of rating. Each % Control value was an average of 4 replicas.

[2] = system: morning glory (IPOHE, a broad leaf week); test: Green house % Control of glyphosate samples with various surfactants (Example 1), morning glory; assay type: in vivo; details: MG
Text: as §1, §2, §3, §4

wheat = test: Example 5 trial of glyphosate formulations on wheat; assay type: in vivo; details: rate of 168 g ae/ha; glyphosate to surfactant ratio 3:1; 21DAT
Text: FIG. 13 is a photo of wheat taken at 21 days after treatment with glyphosate alone, glyphosate with tallowamine-15EO, glyphosate with cocoamine-6EO betaine, and no glyphosate.
Cocoamine-6EO betaine was compared in the same trial with tallowamine-15EO as the positive control and the surfactant-free sample as negative control in glyphosate formulations. Glyphosate to surfactant ratio was 3:1.
This can be seen from the picture at FIG. 13, taken at 21DAT.

[3] = Solubility tests of prior art betaines in concentrated glyphosate salt solutions; assay type: physicochemical
Text: WO2000038523 (Huntsman, U.S. Pat. No. 6,500,784, U.S. Pat. No. 6,653,257, EP1139761) discloses an amphoteric surfactant with the structure RCONH(CH2)nN^+R^12CH2COO^− where R^1 is alkyl or hydroxyl alkyl group with C1 to C4 and n=2-4, and discloses a betaine with the structure R R^12N^+CH2COO^− where R^1 is alkyl or hydroxyl alkyl group with C1 to C4. The amphoterics disclosed there mainly functioned as a co-surfactant to solubilize a ether carboxylate in to concentrated glyphosate systems. In the context of the document, there was no mention of bioefficacy of betaines or other amphoteric surfactants by themselves. […] However, without proper testing of individual surfactant, it is not possible to determine whether the effect seen in the mixture of three surfactants comes from the claimed surfactant or the other two surfactants. Moreover, no actual bioefficacy data and especially no data are provided on the degree of “overall kill” provided in the absence of surfactants and in the presence of surfactants; without such data it is not possible to determine whether or not the claimed alkyl amido betaine was effective in enhancing herbicidal activity of glyphosate under the conditions of the test reported. This patent requires Na ion to be <0.035% for the glyphosate formulation to be stable. Moreover, it used only IPA-glyphosate as examples. […]

[4] = system: morning glory (IPOHE) and wheat (TRIAV); test: Example 1 green house trial, overall statement on adjuvancy; assay type: in vivo; details: glyphosate:surfactant ratio 6.7
Text: as §1, §2, §4

morning glory and wheat = test: Example 3 green house trial, % Control of glyphosate formulations; assay type: in vivo; details: 930, 465 and 233 g ae/ha; 28 DAT; compared with glyphosate formulation without surfactant
Text: FIG. 9 is a bar graph illustrating the % control results of applying glyphosate formulation containing oleylamphopolycarboxy glycinate, glyphosate formulation containing tallowamine-10EO, and glyphosate alone, each at 233 g ae/ha, 465 g ae/ha, and 930 g ae/ha to morning glory at 28 days after treatment.
FIG. 10 is a bar graph illustrating the % control results of applying glyphosate formulation containing oleylamphopolycarboxy glycinate, glyphosate formulation containing tallowamine-10EO, and glyphosate alone, each at 233 g ae/ha, 465 g ae/ha, and 930 g ae/ha to wheat at 28 days after treatment.
Glyphosate formulation containing oleylamphopolycarboxy glycinate (Na salt) was compared in a green house trial with glyphosate formulation containing tallowamine-10EO (as positive control) and glyphosate alone in terms of % Control. Three glyphosate rates were used, 930 g ae/ha, 465 gae/ha, and 233 g ae/ha.
The results are plotted in FIGS. 9-10.

[5] = system: morning glory (IPOHE) and winter wheat (TRZAW); test: Example 2 green house trial of concentrated glyphosate samples, % control at 28 DAT; assay type: in vivo; details: glyphosate:surfactant 13:1, 489 and 978 g ae/ha, vs glyphosate alone
Protocol: The concentrated glyphosate samples were diluted to two glyphosate rates and sprayed in a green house so that the final glyphosate rates of the spray solutions were 489 and 978 g ae/H. Three samples at two rates equals six treatments that were sprayed on each of two species, morning glory (IPOHE, a broad leaf week) and winter wheat (TRZAW, a narrow leaf grass). Two rates were employed, 978 g ae/H, and 16-30 at 489 g ae/ha.
Higher ratio means lower surfactant concentration. A ratio of 13:1 means the sample, at the same glyphosate concentration, has 4.3 times less surfactant than a sample with a ratio of 3:1.
Sample A (glyphosate with added tallowamine-15EO) served as a positive control. Sample B containing only glyphosate without added surfactant served as a negative control.
FIGS. 7-8 illustrates the % control results at 28 DAT.

Compound: CC(C)N.O=C(O)CNCP(=O)(O)O [Sample D, Glyphosate (isopropylamine salt)]
- % Control 7DAT ([1]; Glyph rate 186 g ae/h): 28%
- % Control 14 DAT ([1]; Glyph rate 186 g ae/h): 60%
- % Control 21DAT ([1]; Glyph rate 186 g ae/h): 80%
- % Control 29DAT ([1]; Glyph rate 186 g ae/h): 58%
- % Control 7DAT ([1]; Glyph rate 372 g ae/h): 58%
- % Control 14 DAT ([1]; Glyph rate 372 g ae/h): 85%
- % Control 21DAT ([1]; Glyph rate 372 g ae/h): 89%
- % Control 29DAT ([1]; Glyph rate 372 g ae/h): 89%
- % Control 7DAT ([1]; Glyph rate 743 g ae/h): 84%
- % Control 14 DAT ([1]; Glyph rate 743 g ae/h): 94%
- % Control 21DAT ([1]; Glyph rate 743 g ae/h): 98%
- % Control 29DAT ([1]; Glyph rate 743 g ae/h): 98%
- % Control 7DAT ([2]; Glyph rate 186 g ae/h, average of 4 replicas): 55%
- % Control 14 DAT ([2]; Glyph rate 186 g ae/h): 68%
- % Control 21DAT ([2]; Glyph rate 186 g ae/h): 79%
- % Control 29DAT ([2]; Glyph rate 186 g ae/h): 68%
- % Control 7DAT ([2]; Glyph rate 372 g ae/h): 86%
- % Control 14 DAT ([2]; Glyph rate 372 g ae/h): 89%
- % Control 21DAT ([2]; Glyph rate 372 g ae/h): 95%
- % Control 29DAT ([2]; Glyph rate 372 g ae/h): 93%
- % Control 7DAT ([2]; Glyph rate 743 g ae/h): 83%
- % Control 14 DAT ([2]; Glyph rate 743 g ae/h): 90%
- % Control 21DAT ([2]; Glyph rate 743 g ae/h): 94%
- % Control 29DAT ([2]; Glyph rate 743 g ae/h): 91%

Compound: O=C(O)CNCP(=O)(O)O [glyphosate sample without surfactant, glyphosate]
- control to wheat (wheat): did not give much control

Compound: CCCCCCCCCCCCCCCCCC(=O)NCCC[N+](C)(C)CC(=O)[O-] [stearyl dimethylamidopropyl betaine]
- amount of surfactant that could be dissolved ([3]; in a composition of 51.3% potassium glyphosate (aqueous)): < 1.8%

Compound: Cocodiamine trimethyl betaines
- speed of glyphosate activity [4]: speeded up glyphosate activity
- adjuvancy for glyphosate ([4]; 186, 372, 743 g ae/ha): good adjuvancy for glyphosate even at very low use rate

Compound: Ethoxylated cocoamine (6EO) betaine [cocoamine-6EO betaine]
- control to wheat (wheat): excellent control

Compound: coco dimethylamidopropyl betaine
- amount of surfactant that could be dissolved ([3]; in a composition of 360 g ae/l potassium glyphosate): < 80 g/L

Compound: oleylamphopolycarboxy glycinate (Na salt)
- enhancement of glyphosate efficacy (morning glory and wheat): enhanced glyphosate efficacy

Compound: tallow diamine trimethyl di-betaine
- enhancement of glyphosate bioefficacy [5]: enhanced glyphosate bioefficacy even at very low rate

Compound: tallowamine-15EO
- control to wheat (wheat): excellent control
